{"source": "the supplement of paper PMC11208160"}
{"experiment": "recombinant barcode read abundance after kanamycin selection (control-corrected) (log10(CPM+1)); higher = more efficient recombination; sequences stand for … in AGTGCAGAGAAAATCGGCCAGTTTTCTCTGCCTGCAGTCCGCATGCCGT…AGATTTATGCAGCGGACTGCCTTTCTCCCAAAGTGATAAACCGGACAGTATCATGGACCGGTTTTCCCGGTAATCCGTATTTGCAAGGTTGGTTTCACT; site = the 11-nt target", "summary_of_the_method": "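Two replicates per condition were plated: chloramphenicol/ampicillin LB agar for the control, and chloramphenicol/ampicillin/kanamycin with 0.1 mM IPTG for selection. The pooled E. coli screen behind them paired targets with IS621 bridge RNA target-binding loops. Recombination efficiency is expressed from averaged, control-corrected barcode counts per million at recombinant junctions, as log10(CPM+1).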"}
{"sequence": "CGACAATCTTGGGTTCTAACCTGTTGCTT (site CGACAATCTAA)", "recombinant barcode read abundance (log10)": 0.0157}
{"sequence": "CGACAATCTTGGGTTCTAACCTGTTGCTT (site TCTAGGACTTT)", "recombinant barcode read abundance (log10)": 0.27}
{"sequence": "CGACACACTTGGGTTCTAACCTGTTGCCT (site CGACACACTAG)", "recombinant barcode read abundance (log10)": 0.135}
{"sequence": "CGACACACTTGGGTTCTAACCTGTTGCCT (site CGCCACACTAG)", "recombinant barcode read abundance (log10)": 0.0974}
{"sequence": "CGACACACTTGGGTTCTAACCTGTTGCCT (site CGGCACACTAG)", "recombinant barcode read abundance (log10)": 0.0559}
{"sequence": "CGACACACTTGGGTTCTAACCTGTTGCCT (site CGTCACACTAG)", "recombinant barcode read abundance (log10)": 0.0536}
{"sequence": "CGACAGGCTTGGGTTCTAACCTGTTGCCT (site AGACTGGCTAG)", "recombinant barcode read abundance (log10)": 0.073}
{"sequence": "CGACAGGCTTGGGTTCTAACCTGTTGCCT (site CGACAGGCTAG)", "recombinant barcode read abundance (log10)": 0.439}
{"sequence": "CGACGCACTTGGGTTCTAACCTGTTGCGG (site CGACGCACTCC)", "recombinant barcode read abundance (log10)": 0.584}
{"sequence": "CGACGCACTTGGGTTCTAACCTGTTGCGG (site TAGTTGTCTAA)", "recombinant barcode read abundance (log10)": 0.0412}
{"sequence": "CGAGACGCTTGGGTTCTAACCTGTTGCCT (site CCATACGCTAG)", "recombinant barcode read abundance (log10)": 0.109}
{"sequence": "CGAGACGCTTGGGTTCTAACCTGTTGCCT (site CGAGACGCTAG)", "recombinant barcode read abundance (log10)": 1.87}
{"sequence": "CGAGAGACTTGGGTTCTAACCTGTTGCTT (site CAAGAGTCTAA)", "recombinant barcode read abundance (log10)": 0.0807}
{"sequence": "CGAGAGACTTGGGTTCTAACCTGTTGCTT (site CGAGAGACTAA)", "recombinant barcode read abundance (log10)": 0.994}
{"sequence": "CGAGAGTCTTGGGTTCTAACCTGTTGCGG (site AGAGAGGCTCC)", "recombinant barcode read abundance (log10)": 0.119}
{"sequence": "CGAGAGTCTTGGGTTCTAACCTGTTGCGG (site CGAGAGTCTCC)", "recombinant barcode read abundance (log10)": 1.31}
{"sequence": "CGAGATTCTTGGGTTCTAACCTGTTGCCT (site CAAGATTCTAG)", "recombinant barcode read abundance (log10)": 0.331}
{"sequence": "CGAGATTCTTGGGTTCTAACCTGTTGCCT (site CCAGATTCTAG)", "recombinant barcode read abundance (log10)": 0.271}
{"sequence": "CGAGATTCTTGGGTTCTAACCTGTTGCCT (site CGAGATTCTAG)", "recombinant barcode read abundance (log10)": 0.755}
{"sequence": "CGAGATTCTTGGGTTCTAACCTGTTGCCT (site CTAGATTCTAG)", "recombinant barcode read abundance (log10)": 0.332}
{"sequence": "CGAGCTCCTTGGGTTCTAACCTGTTGCGT (site CGAGCTCCTAA)", "recombinant barcode read abundance (log10)": 0.0215}
{"sequence": "CGAGCTCCTTGGGTTCTAACCTGTTGCGT (site CGAGCTCCTAC)", "recombinant barcode read abundance (log10)": 2.04}
{"sequence": "CGAGCTCCTTGGGTTCTAACCTGTTGCGT (site CGAGCTCCTAG)", "recombinant barcode read abundance (log10)": 0.813}
{"sequence": "CGAGCTCCTTGGGTTCTAACCTGTTGCGT (site CGAGCTCCTAT)", "recombinant barcode read abundance (log10)": 0.766}
{"sequence": "CGAGGACCTTGGGTTCTAACCTGTTGCCT (site CCAGGACCTAG)", "recombinant barcode read abundance (log10)": 0.729}
{"sequence": "CGAGGACCTTGGGTTCTAACCTGTTGCCT (site CGAGGACCTAG)", "recombinant barcode read abundance (log10)": 2.3}
{"sequence": "CGAGGGACTTGGGTTCTAACCTGTTGCCT (site CGAGGGACTAG)", "recombinant barcode read abundance (log10)": 1.81}
{"sequence": "CGAGGGACTTGGGTTCTAACCTGTTGCCT (site CGAGGGCCTAG)", "recombinant barcode read abundance (log10)": 0.0632}
{"sequence": "CGAGGGACTTGGGTTCTAACCTGTTGCCT (site CGAGGGGCTAG)", "recombinant barcode read abundance (log10)": 0.807}
{"sequence": "CGAGGGACTTGGGTTCTAACCTGTTGCCT (site CGAGGGTCTAG)", "recombinant barcode read abundance (log10)": 0.056}
{"sequence": "CGAGGGCCTTGGGTTCTAACCTGTTGCCT (site CGAGGGACTAG)", "recombinant barcode read abundance (log10)": 0.049}
{"sequence": "CGAGGGCCTTGGGTTCTAACCTGTTGCCT (site CGAGGGCCTAG)", "recombinant barcode read abundance (log10)": 0.603}
{"sequence": "CGAGGGCCTTGGGTTCTAACCTGTTGCCT (site CGAGGGGCTAG)", "recombinant barcode read abundance (log10)": 0.0635}
{"sequence": "CGAGGGCCTTGGGTTCTAACCTGTTGCCT (site CGAGGGTCTAG)", "recombinant barcode read abundance (log10)": 0.345}
{"sequence": "CGAGTGACTTGGGTTCTAACCTGTTGCAG (site ATTAACTCTAG)", "recombinant barcode read abundance (log10)": 0.0869}
{"sequence": "CGAGTGACTTGGGTTCTAACCTGTTGCAG (site CGAGTGACTCT)", "recombinant barcode read abundance (log10)": 1.32}
{"sequence": "CGATGGACTTGGGTTCTAACCTGTTGCCG (site CAATGGGCTCG)", "recombinant barcode read abundance (log10)": 0.102}
{"sequence": "CGATGGACTTGGGTTCTAACCTGTTGCCG (site CGATGGACTCG)", "recombinant barcode read abundance (log10)": 0.956}
{"sequence": "CGATGTCCTTGGGTTCTAACCTGTTGCCT (site CGATGTCCTAG)", "recombinant barcode read abundance (log10)": 0.864}
{"sequence": "CGATGTCCTTGGGTTCTAACCTGTTGCCT (site CGATGTGCTAG)", "recombinant barcode read abundance (log10)": 0.039}
{"sequence": "CGATTACCTTGGGTTCTAACCTGTTGCCT (site CGATTAACTAG)", "recombinant barcode read abundance (log10)": 0.0753}
{"sequence": "CGATTACCTTGGGTTCTAACCTGTTGCCT (site CGATTACCTAG)", "recombinant barcode read abundance (log10)": 0.264}
{"sequence": "CGATTACCTTGGGTTCTAACCTGTTGCCT (site CGATTAGCTAG)", "recombinant barcode read abundance (log10)": 0.38}
{"sequence": "CGATTACCTTGGGTTCTAACCTGTTGCCT (site CGATTATCTAG)", "recombinant barcode read abundance (log10)": 0.11}
{"sequence": "CGATTAGCTTGGGTTCTAACCTGTTGCCT (site CGATTAACTAG)", "recombinant barcode read abundance (log10)": 0.161}
{"sequence": "CGATTAGCTTGGGTTCTAACCTGTTGCCT (site CGATTACCTAG)", "recombinant barcode read abundance (log10)": 0.038}
{"sequence": "CGATTAGCTTGGGTTCTAACCTGTTGCCT (site CGATTAGCTAG)", "recombinant barcode read abundance (log10)": 0.169}
{"sequence": "CGATTAGCTTGGGTTCTAACCTGTTGCCT (site CGATTATCTAG)", "recombinant barcode read abundance (log10)": 0.186}
{"sequence": "CGCACGTCTTGGGTTCTAACCTGTTGCTT (site CACAAGTCTAA)", "recombinant barcode read abundance (log10)": 0.185}
{"sequence": "CGCACGTCTTGGGTTCTAACCTGTTGCTT (site CGCACGTCTAA)", "recombinant barcode read abundance (log10)": 0.0911}
{"sequence": "CGCCACACTTGGGTTCTAACCTGTTGCCT (site CGACACACTAG)", "recombinant barcode read abundance (log10)": 0.426}
{"sequence": "CGCCACACTTGGGTTCTAACCTGTTGCCT (site CGCCACACTAG)", "recombinant barcode read abundance (log10)": 0.296}
{"sequence": "CGCCACACTTGGGTTCTAACCTGTTGCCT (site CGGCACACTAG)", "recombinant barcode read abundance (log10)": 0.689}
{"sequence": "CGCCACACTTGGGTTCTAACCTGTTGCCT (site CGTCACACTAG)", "recombinant barcode read abundance (log10)": 1.22}
{"sequence": "CGCCGAACTTGGGTTCTAACCTGTTGCCT (site AGCCGAACTAG)", "recombinant barcode read abundance (log10)": 0.0619}
{"sequence": "CGCCGAACTTGGGTTCTAACCTGTTGCCT (site CGCCGAACTAG)", "recombinant barcode read abundance (log10)": 0.0225}
{"sequence": "CGCCGAACTTGGGTTCTAACCTGTTGCCT (site GGCCGAACTAG)", "recombinant barcode read abundance (log10)": 0.339}
{"sequence": "CGCCGAACTTGGGTTCTAACCTGTTGCCT (site TGCCGAACTAG)", "recombinant barcode read abundance (log10)": 0.0386}
{"sequence": "CGCCTGCCTTGGGTTCTAACCTGTTGCCT (site CGCCAGCCTAG)", "recombinant barcode read abundance (log10)": 0.119}
{"sequence": "CGCCTGCCTTGGGTTCTAACCTGTTGCCT (site CGCCTGCCTAG)", "recombinant barcode read abundance (log10)": 0.113}
{"sequence": "CGCCTTCCTTGGGTTCTAACCTGTTGCAT (site CGCCATCCTAT)", "recombinant barcode read abundance (log10)": 0.121}
{"sequence": "CGCCTTCCTTGGGTTCTAACCTGTTGCAT (site CGCCCTCCTAT)", "recombinant barcode read abundance (log10)": 0.157}
{"sequence": "CGCCTTCCTTGGGTTCTAACCTGTTGCAT (site CGCCGTCCTAT)", "recombinant barcode read abundance (log10)": 0.0857}
{"sequence": "CGCCTTCCTTGGGTTCTAACCTGTTGCAT (site CGCCTTCCTAT)", "recombinant barcode read abundance (log10)": 0.0767}
{"sequence": "CGCGCAGCTTGGGTTCTAACCTGTTGCCT (site CGAGCAGCTAG)", "recombinant barcode read abundance (log10)": 0.382}
{"sequence": "CGCGCAGCTTGGGTTCTAACCTGTTGCCT (site CGCGCAGCTAG)", "recombinant barcode read abundance (log10)": 0.267}
{"sequence": "CGCGCAGCTTGGGTTCTAACCTGTTGCCT (site CGGGCAGCTAG)", "recombinant barcode read abundance (log10)": 0.135}
{"sequence": "CGCGCAGCTTGGGTTCTAACCTGTTGCCT (site CGTGCAGCTAG)", "recombinant barcode read abundance (log10)": 0.416}
{"sequence": "CGCGTAACTTGGGTTCTAACCTGTTGCCT (site CGCGCAACTAG)", "recombinant barcode read abundance (log10)": 0.112}
{"sequence": "CGCGTAACTTGGGTTCTAACCTGTTGCCT (site CGCGTAACTAG)", "recombinant barcode read abundance (log10)": 0.123}
{"sequence": "CGCTCCTCTTGGGTTCTAACCTGTTGCAT (site CGCTCCTCTAT)", "recombinant barcode read abundance (log10)": 0}
{"sequence": "CGCTCCTCTTGGGTTCTAACCTGTTGCAT (site GCTCGACCTCA)", "recombinant barcode read abundance (log10)": 0.177}
{"sequence": "CGCTCCTCTTGGGTTCTAACCTGTTGCCT (site AGCTCCTCTAG)", "recombinant barcode read abundance (log10)": 0.0659}
{"sequence": "CGCTCCTCTTGGGTTCTAACCTGTTGCCT (site CGCTCCTCTAG)", "recombinant barcode read abundance (log10)": 0.027}
{"sequence": "CGCTCCTCTTGGGTTCTAACCTGTTGCCT (site GGCTCCTCTAG)", "recombinant barcode read abundance (log10)": 0.0456}
{"sequence": "CGCTCCTCTTGGGTTCTAACCTGTTGCCT (site TGCTCCTCTAG)", "recombinant barcode read abundance (log10)": 0.103}
{"sequence": "CGCTGACCTTGGGTTCTAACCTGTTGCCT (site CGCTGACCTAG)", "recombinant barcode read abundance (log10)": 0.0666}
{"sequence": "CGCTGACCTTGGGTTCTAACCTGTTGCCT (site GCAACCTCTTA)", "recombinant barcode read abundance (log10)": 0.11}
{"sequence": "CGCTGATCTTGGGTTCTAACCTGTTGCCT (site AGCTGATCTAG)", "recombinant barcode read abundance (log10)": 0.0494}
{"sequence": "CGCTGATCTTGGGTTCTAACCTGTTGCCT (site CGCTGATCTAG)", "recombinant barcode read abundance (log10)": 0.0169}
{"sequence": "CGCTGATCTTGGGTTCTAACCTGTTGCCT (site GGCTGATCTAG)", "recombinant barcode read abundance (log10)": 0.14}
{"sequence": "CGCTGATCTTGGGTTCTAACCTGTTGCCT (site TGCTGATCTAG)", "recombinant barcode read abundance (log10)": 0.0802}
{"sequence": "CGCTGCCCTTGGGTTCTAACCTGTTGCTT (site CGCTGACCTAA)", "recombinant barcode read abundance (log10)": 0.102}
{"sequence": "CGCTGCCCTTGGGTTCTAACCTGTTGCTT (site CGCTGCCCTAA)", "recombinant barcode read abundance (log10)": 0.113}
{"sequence": "CGCTGCCCTTGGGTTCTAACCTGTTGCTT (site CGCTGGCCTAA)", "recombinant barcode read abundance (log10)": 0.0609}
{"sequence": "CGCTGCCCTTGGGTTCTAACCTGTTGCTT (site CGCTGTCCTAA)", "recombinant barcode read abundance (log10)": 0.512}
